# In publication PMC8451604, “Rational formulation engineering of fraxinellone utilizing 6-O-α-D-maltosyl-β-cyclodextrin for enhanced oral bioavailability and hepatic fibrosis therapy” (Drug Delivery, 2021):
# Entries after “also recorded” stand apart in the source; their conditions may differ.
# Columns and labels:
# [1] = system: CCl4-induced liver fibrosis mice; assay: CCl4-induced liver fibrosis, therapeutic efficacy; format: in vivo, Kunming male mice
# Description: The Kunming male mice (weight of 28–30 g) were divided into 10 groups (n = 10): normal group, CCl4-induced liver fibrosis group, CCl4 induction treated with Frax or G2-β-CD-Frax treatment groups (5, 10, and 20 mg/kg, respectively), CCl4 induction with colchicine (0.2 mg/kg) treatment group, CCl4 induction with G2-β-CD solution treatment (equivalent to 20 mg/kg of G2-β-CD-Frax) group. The mice in the normal group were treated with olive oil only, while the other groups were intraperitoneally injected with 10% CCl4-olive oil every other week for 10 weeks (5 mL/kg for the first dose and 3 mL/kg for the second starting dose). Drug treatment began on the fourth week of modeling and continued every day for 7 weeks. One day after the last administration, blood in all the groups was immediately harvested for assays of AST and ALT. […] were then sacrificed and livers were collected and divided into two parts for histological examination and Hydroxyproline (HYP) assay, respectively.
# [2] = parameters: method as in Ruan et al., 2006; conditions: ref Ruan et al., 2006; cited from earlier work
# [3] = Stability of Frax in artificial gastrointestinal fluid (SGF/SIF); format: physicochemical; conditions: SGF/SIF with or without enzymes, 37 °C
# Description: The stability studies were performed according to the previous study (Zhang et al., [2015]). Briefly, 20 μL of DMSO solution of Frax (10 mg/mL) was added to 10 mL of simulated gastric fluid (SGF) or simulated intestinal fluid (SIF) containing pepsin/without pepsin. Afterward, the samples were placed in a shaker (100 rpm, 37 °C). At predetermined timepoints, a suitable amount of samples were withdrawn and mixed with methanol. After a thorough vortex, the mixture was centrifuged and the resulted supernatant was subjected to HPLC to determine Frax content.
# [4] = Phase solubility study of Frax with CDs; format: physicochemical; conditions: 37 °C; for solubility at 72 h: aqueous with cosolvent or surfactant or cyclodextrin, thermodynamic from solid; for Frax solubility increase: vs water
# Description: Frax was excessively mixed with increasing molar concentrations (0–350.00 mM) of each CD aqueous solution. […] The samples were subjected to HPLC analysis after centrifugation (4024.8 g, 10 min). Phase solubility profiles were plotted by monitoring Frax concentration as a function of the molar concentration of each CD. Based on the phase solubility curves, we calculated the apparent stability constants (Kc, L/mol) according to Equation (1): (1) Kc=Slope/S0(1−Slope) where S0 is the water solubility of Frax at equilibrium.
# [5] = In vitro drug release by dialysis method; format: physicochemical; conditions: within 6 h, pH 1.2, 6.8 and 7.4 media, 37 °C
# Description: In vitro drug release performance was studied by a dialysis method in phosphate buffer (pH 6.8 and 7.4) and 0.1 M HCl (pH 1.2) at 37 °C. Briefly, a certain volume of Frax suspension, SBE-β-CD-Frax, G2-β-CD-Frax, and HP-β-CD-Frax dispersion solution were enclosed in 1500 Da dialysis bags, respectively. The dialysis bag was then transferred and immersed into the release medium under gentle shaking. After 0.5, 1, 1.5, 2, 2.5, 3.5, 4, and 6 h, 1 mL of the release media was aspirated and supplemented with 1 mL of fresh media. The Frax concentration in the samples was analyzed by HPLC. The cumulative drug release (%) was calculated with the following Equation (2) (Chuang et al., [2018]): (2) Drug release (%)=Ve∑1n−1Ci+V0Cn/mFrax where V0 (mL) is the release media volume, Cn (μg/mL) is the drug concentration in the sample, Ve (mL) is the replaced medium volume, and mFrax (mg) is the amount of drug in the sample.
# [6] = Solubility of Frax in various solubilizers (50% solution); format: physicochemical; conditions: 37 °C
# Description: Excess Frax was added into Solutol HS 15, Tween 80, PEG 400, Transcutol P, β-CD, SBE-β-CD, HP-β-CD, and G2-β-CD solution (50%), respectively. The samples were vortexed followed by incubation in a shaker (120 rpm, 37 °C) for 72 h. After the process, the samples were centrifuged to separate the supernatant containing dissolved Frax. After suitable dilution and filtration, Frax concentration in the supernatant was analyzed by the HPLC method.
# [7] = oral 5 mg/kg daily for 7 weeks, vs CCl4 group
smiles,measurement,setting,value
"CC1=C2C(=O)O[C@@H](c3ccoc3)[C@]2(C)CCC1 [Frax, Fraxinellone]","collagen in liver tissue (Masson, Sirius Red staining)",[1]; [7],no obvious inhibition
same,"levels of liver fibrosis markers AST, ALT and HYP",[1]; [7],no significant decrease
same,effect on liver fibrosis,[1]; oral 20 mg/kg daily for 7 weeks,rather modest effect
same,intestinal permeability,[2],good intestinal permeability
same,degradation in simulated GI fluids,[3],rather stable; also recorded: negligible degradation
same,solubility at 72 h,"[4]; 8.82 mM G2-β-CD aqueous solution, with 8.82 mM G2-β-CD",430 µg/mL
same,solubility at 72 h,"[4]; 8.82 mM HP-β-CD aqueous solution, with 8.82 mM HP-β-CD",330 µg/mL
same,solubility at 72 h,"[4]; 8.82 mM SBE-β-CD aqueous solution, with 8.82 mM SBE-β-CD",600 µg/mL
same,solubility at 72 h,"[4]; 8.82 mM β-CD aqueous solution, with 8.82 mM β-CD",310 µg/mL
same,solubility at 72 h,"[4]; 350 mM G2-β-CD aqueous solution, with 350 mM G2-β-CD",12300 µg/mL
same,solubility at 72 h,"[4]; 350 mM HP-β-CD aqueous solution, with 350 mM HP-β-CD",6550 µg/mL
same,solubility at 72 h,"[4]; 350 mM SBE-β-CD aqueous solution, with 350 mM SBE-β-CD",13600 µg/mL
same,Frax solubility increase,[4]; with 8.82 mM G2-β-CD,5.45 fold
same,Frax solubility increase,[4]; with 8.82 mM HP-β-CD,4.18 fold
same,Frax solubility increase,[4]; with 8.82 mM SBE-β-CD,7.61 fold
same,Frax solubility increase,[4]; with 8.82 mM β-CD,3.93 fold
same,Frax solubility increase,[4]; with 350 mM G2-β-CD,156.19 fold
same,Frax solubility increase,[4]; with 350 mM HP-β-CD,83.04 fold
same,Frax solubility increase,[4]; with 350 mM SBE-β-CD,171.91 fold
same,cumulative drug release,[5],< 20%
same,solubility at 72 h,[6]; 50% (w/v) G2-β-CD solution in water,12700 µg/mL
same,Frax solubility in G2-β-CD solution relative to water,[6]; 50% (w/v) G2-β-CD solution vs water,160 times
